In ChEMBL document CHEMBL3885861, “Open TG-GATES”:

Organism: Rattus norvegicus
Assay: Open TG-GATES - Regimen: Daily Repeat
Type: toxicity, organism-based, Sprague-Dawley
Design: regimen Daily Repeat, gender Male, age 6 weeks
Conditions: in vivo, po, 6 mg/kg, route gavage, dose level Middle; for APTT / Bas / Eos / Fbg / Hb / Lym / MCH / MCHC / MCV / Mono / Neu / PT / Plat / RBC / Ret / WBC: tissue Blood; for KIDNEY_L / KIDNEY_R / KIDNEY_TOTAL: tissue Kidney; for LIVER: tissue Liver; for ALP / ALT / AST / BUN / CRE / Ca / Cl / DBIL / GLC / IP / K / LDH / Na / PL / RALB / TBIL / TC / TG / TP / gamma-GTP: tissue Plasma

SMILES: OCCN1CCN(CCCN2c3ccccc3Sc3ccc(C(F)(F)F)cc32)CC1 [FLUPHENAZINE]
- TERMINAL_BW (72 h, time 3 day): 198.7 g
- APTT (72 h, time 3 day): 15.9 s
- Bas (72 h, time 3 day): 0%
- Eos (72 h, time 3 day): 0.6%
- Fbg (72 h, time 3 day): 227.2 mg/dL
- Hb (72 h, time 3 day): 15.1 g/dL
- Lym (72 h, time 3 day): 88.4%
- MCH (72 h, time 3 day): 21.2 pg
- MCHC (72 h, time 3 day): 33.3%
- MCV (72 h, time 3 day): 63.7 fL
- Mono (72 h, time 3 day): 5.8%
- Neu (72 h, time 3 day): 5.2%
- PT (72 h, time 3 day): 12.2 s
- Plat (72 h, time 3 day): 119.2 x10_4/uL
- RBC (72 h, time 3 day): 711.6 x10_4/ul
- Ret (72 h, time 3 day): 3.4%
- WBC (72 h, time 3 day): 119.1 x10_2/uL
- KIDNEY_L (72 h, time 3 day): 0.9 g
- KIDNEY_R (72 h, time 3 day): 0.9 g
- KIDNEY_TOTAL (72 h, time 3 day): 1.8 g
- LIVER (72 h, time 3 day): 9.5 g
- ALP (72 h, time 3 day): 909.4 IU/L
- ALT (72 h, time 3 day): 35 IU/L
- AST (72 h, time 3 day): 58.6 IU/L
- BUN (72 h, time 3 day): 24.8 mg/dL
- CRE (72 h, time 3 day): 0.6 mg/dL
- Ca (72 h, time 3 day): 10.8 mg/dL
- Cl (72 h, time 3 day): 106.4 meq/L
- DBIL (72 h, time 3 day): 0.008 mg/dL
- GLC (72 h, time 3 day): 177.4 mg/dL
- IP (72 h, time 3 day): 8 mg/dL
- K (72 h, time 3 day): 4.6 meq/L
- LDH (72 h, time 3 day): 84.6 IU/L
- Na (72 h, time 3 day): 138.4 meq/L
- PL (72 h, time 3 day): 186.6 mg/dL
- RALB (72 h, time 3 day): 4.3 g/dL
- TBIL (72 h, time 3 day): 0.2 mg/dL
- TC (72 h, time 3 day): 98.4 mg/dL
- TG (72 h, time 3 day): 112.6 mg/dL
- TP (72 h, time 3 day): 6.1 g/dL
- gamma-GTP (72 h, time 3 day): 0.6 IU/L
- TERMINAL_BW ([…], time 7 day): 230.3 g
- TERMINAL_BW ([…], time 14 day): 284.3 g
- TERMINAL_BW ([…], time 28 day): 346.8 g
- APTT ([…], time 7 day): 16.8 s
- Bas ([…], time 7 day): 0%
- Eos ([…], time 7 day): 0.6%
- Fbg ([…], time 7 day): 224.2 mg/dL
- Hb ([…], time 7 day): 14 g/dL
- Lym ([…], time 7 day): 78.6%
- MCH ([…], time 7 day): 21 pg
- MCHC ([…], time 7 day): 33.3%
- MCV ([…], time 7 day): 63.1 fL
- Mono ([…], time 7 day): 5.6%
- Neu ([…], time 7 day): 15.2%
- PT ([…], time 7 day): 12.1 s
- Plat ([…], time 7 day): 82.3 x10_4/uL
- RBC ([…], time 7 day): 668.6 x10_4/ul
- Ret ([…], time 7 day): 3.6%
- WBC ([…], time 7 day): 95.8 x10_2/uL
- APTT ([…], time 14 day): 15.9 s
- Bas ([…], time 14 day): 0%
- Eos ([…], time 14 day): 0.8%
- Fbg ([…], time 14 day): 217.2 mg/dL
- Hb ([…], time 14 day): 14.4 g/dL
- Lym ([…], time 14 day): 79.6%
- MCH ([…], time 14 day): 20.1 pg
- MCHC ([…], time 14 day): 33.3%
- MCV ([…], time 14 day): 60.5 fL
- Mono ([…], time 14 day): 5.8%
- Neu ([…], time 14 day): 14%
- PT ([…], time 14 day): 12.1 s
- Plat ([…], time 14 day): 97 x10_4/uL
- RBC ([…], time 14 day): 716.4 x10_4/ul
- Ret ([…], time 14 day): 3.6%
- WBC ([…], time 14 day): 128.9 x10_2/uL
- APTT ([…], time 28 day): 17.2 s
- Bas ([…], time 28 day): 0%
- Eos ([…], time 28 day): 1.2%
- Fbg ([…], time 28 day): 209.2 mg/dL
- Hb ([…], time 28 day): 15.6 g/dL
- Lym ([…], time 28 day): 83%
- MCH ([…], time 28 day): 19.7 pg
- MCHC ([…], time 28 day): 33.4%
- MCV ([…], time 28 day): 58.9 fL
- Mono ([…], time 28 day): 5%
- Neu ([…], time 28 day): 10.6%
- PT ([…], time 28 day): 12.3 s
- Plat ([…], time 28 day): 89.8 x10_4/uL
- RBC ([…], time 28 day): 792.6 x10_4/ul
- Ret ([…], time 28 day): 2.2%
- WBC ([…], time 28 day): 134.3 x10_2/uL
- KIDNEY_L ([…], time 7 day): 1 g
- KIDNEY_R ([…], time 7 day): 1 g
- KIDNEY_TOTAL ([…], time 7 day): 2 g
- KIDNEY_L ([…], time 14 day): 1.1 g
- KIDNEY_R ([…], time 14 day): 1.1 g
- KIDNEY_TOTAL ([…], time 14 day): 2.3 g
- KIDNEY_L ([…], time 28 day): 1.2 g
- KIDNEY_R ([…], time 28 day): 1.2 g
- KIDNEY_TOTAL ([…], time 28 day): 2.4 g
- LIVER ([…], time 7 day): 10.9 g
- LIVER ([…], time 14 day): 11.9 g
- LIVER ([…], time 28 day): 13.7 g
- ALP ([…], time 7 day): 836 IU/L
- ALT ([…], time 7 day): 33 IU/L
- AST ([…], time 7 day): 62.6 IU/L
- BUN ([…], time 7 day): 18 mg/dL
- CRE ([…], time 7 day): 0.5 mg/dL
- Ca ([…], time 7 day): 10.5 mg/dL
- Cl ([…], time 7 day): 105.2 meq/L
- DBIL ([…], time 7 day): 0.012 mg/dL
- GLC ([…], time 7 day): 170.6 mg/dL
- IP ([…], time 7 day): 8.4 mg/dL
- K ([…], time 7 day): 4.8 meq/L
- LDH ([…], time 7 day): 79.4 IU/L
- Na ([…], time 7 day): 137.4 meq/L
- PL ([…], time 7 day): 178.8 mg/dL
- RALB ([…], time 7 day): 4.1 g/dL
- TBIL ([…], time 7 day): 0.3 mg/dL
- TC ([…], time 7 day): 96.4 mg/dL
- TG ([…], time 7 day): 106 mg/dL
- TP ([…], time 7 day): 6 g/dL
- gamma-GTP ([…], time 7 day): 1 IU/L
- ALP ([…], time 14 day): 859.2 IU/L
- ALT ([…], time 14 day): 29.4 IU/L
- AST ([…], time 14 day): 63.2 IU/L
- BUN ([…], time 14 day): 18 mg/dL
- CRE ([…], time 14 day): 0.5 mg/dL
- Ca ([…], time 14 day): 10.7 mg/dL
- Cl ([…], time 14 day): 103.6 meq/L
- DBIL ([…], time 14 day): 0 mg/dL
- GLC ([…], time 14 day): 190.8 mg/dL
- IP ([…], time 14 day): 7.8 mg/dL
- K ([…], time 14 day): 4.6 meq/L
- LDH ([…], time 14 day): 99.2 IU/L
- Na ([…], time 14 day): 135.2 meq/L
- PL ([…], time 14 day): 141 mg/dL
- RALB ([…], time 14 day): 4.2 g/dL
- TBIL ([…], time 14 day): 0.3 mg/dL
- TC ([…], time 14 day): 68 mg/dL
- TG ([…], time 14 day): 109.2 mg/dL
- TP ([…], time 14 day): 5.9 g/dL
- gamma-GTP ([…], time 14 day): 1.6 IU/L
- ALP ([…], time 28 day): 483.8 IU/L
- ALT ([…], time 28 day): 32.8 IU/L
- AST ([…], time 28 day): 58.6 IU/L
- BUN ([…], time 28 day): 21.4 mg/dL
- CRE ([…], time 28 day): 0.6 mg/dL
- Ca ([…], time 28 day): 10.7 mg/dL
- Cl ([…], time 28 day): 107.6 meq/L
- DBIL ([…], time 28 day): 0.006 mg/dL
- GLC ([…], time 28 day): 175.2 mg/dL
- IP ([…], time 28 day): 6.3 mg/dL
- K ([…], time 28 day): 4.5 meq/L
- LDH ([…], time 28 day): 75 IU/L
- Na ([…], time 28 day): 140.4 meq/L
- PL ([…], time 28 day): 147 mg/dL
- RALB ([…], time 28 day): 4.2 g/dL
- TBIL ([…], time 28 day): 0.3 mg/dL
- TC ([…], time 28 day): 66.4 mg/dL
- TG ([…], time 28 day): 138.8 mg/dL
- TP ([…], time 28 day): 6.3 g/dL
- gamma-GTP ([…], time 28 day): 1.6 IU/L
